The source of these data is patent US20110245242A1, “Heterocyclically Substituted Anilinopyrimides” (Bayer CropScience AG, priority 2008, published 2011).

What is called chromatographic logP is lipophilicity estimated from chromatographic retention.

The test system of data set [1] is Fusarium proliferatum. Kind of data set: Production of Fumonisin FB1 by Fusarium proliferatum (microtitre plates; FB1 by HPLC-MS/MS, growth by OD620). Format: cell-based. To be noted: for pI50 Fum: FB1 concentration in liquid medium after 6 days at 20° C., HPLC-MS/MS; for pI50 growth: OD620 at the beginning and after 6 days.
Data set [2] is described as follows: log P by LC-MS, method [b], acid range pH 2.7. It counts as physicochemical. As to the method:
The log P values were measured in accordance with EEC Directive 79/831 Annex V.A8 by HPLC (High Performance Liquid Chromatography) on reversed-phase columns (C 18) using the methods below:
[b] The LC-MS determination in the acid range was carried out at pH 2.7 using the mobile phases 0.1% aqueous formic acid and acetonitrile (contains 0.1% formic acid)
linear gradient from 10% acetonitrile to 95% acetonitrile.

A short description of data set [3]: physchem. To be noted: pH 7.8. Format: physicochemical. As to the method: The log P values were measured in accordance with EEC Directive 79/831 Annex V.A8 by HPLC (High Performance Liquid Chromatography) on reversed-phase columns (C 18) using the methods below: [c] The LC-MS determination in the neutral range was carried out at pH 7.8 using the mobile phases 0.001 molar aqueous ammonium bicarbonate solution and acetonitrile linear gradient from 10% acetonitrile to 95% acetonitrile.

Data set [4] in a line: log P by HPLC on reversed-phase columns (C 18), method [a], acidic range pH 2.3. It counts as physicochemical. On the procedure:
The log P values were measured in accordance with EEC Directive 79/831 Annex V.A8 by HPLC (High Performance Liquid Chromatography) on reversed-phase columns (C 18) using the methods below: [a] The determination was carried out in the acidic range at pH 2.3 using the mobile phases 0.1% aqueous phosphoric acid and acetronitrile linear gradient from 10% acetonitrile to 95% acetronitrile.

Data set [5] concerns Sphaerotheca fuliginea. Kind of data set: Sphaerotheca test (cucumber)/protective. It counts as in vivo. To be noted: Podosphaera fuliginea, 168 h, active compound concentration of 500 ppm, protective, evaluation 7 days after the inoculation, read-out: efficacy.

Regarding `CC1CCN(c2cccc(Nc3ncc(Br)c(NC4CC4)n3)c2)C1=O` (stereo not drawn) [Example 187], in data set [1], the “pI50 Fum” value is given as 6.3 and the pI50 growth worked out at 5.8. For the same molecule, in data set [2] (pH 2.7), the log p was 1.87[b]. The log p in data set [3] was 2.83[c];.

With `CCOC1CCC(=O)N1c1cccc(Nc2ncc(Cl)c(NC3CC3)n2)c1` (stereo not drawn) [Example 106, 1-(3-{[5-Chloro-4-(cyclopropylamino)pyrimidin-2-yl]amino}phenyl)-5-ethoxypyrrolidin-2-one], the chromatographic logP in data set [4] (pH 2.3, log P (pH 2.3)) worked out at 1.65; in data set [4] (pH 2.3, log p), 1.65. Besides, the pest or weed control at 500 ppm in data set [5] was at least 70%.

Regarding `CN(c1nc(Nc2cccc(N3C(=O)CC(C)(C)C3=O)c2)ncc1Cl)C1CC1` [Example 177], in data set [1], the “pI50 Fum” value worked out at 6.1 and the pI50 growth was found to be 5.7. Besides, the log p in data set [2] (pH 2.7) was 2.55[b].

Consider `CC1CC(=O)N(c2cccc(Nc3ncc(Br)c(NC4CCC4)n3)c2)C1=O` (stereo not drawn) [Example 73], for which, in data set [1], the “pI50 Fum” value is 6.4 and the pI50 growth is listed as 5.8. Further, the log p in data set [2] (pH 2.7) is 1.9[b].

In the case of `O=C1OCCN1c1cccc(Nc2ncc(C(F)(F)F)c(NC3CCC3)n2)c1` [Example 194], in data set [1], the “pI50 Fum” value came out at 6.1 and the pI50 growth turned out to be 5.4. The log p in data set [2] (pH 2.7) was 2.58[b].

As for `CC1CC(=O)N(c2cccc(Nc3ncc(Cl)c(NC4CC4)n3)c2)C1=O` (stereo not drawn) [Example 65], in data set [1], the “pI50 Fum” value amounted to 6.2 and the pI50 growth was found to be 5.7. Further, the log p in data set [2] (pH 2.7) was 1.59[b].

With `CCC1COC(=O)N1c1cccc(Nc2ncc(Cl)c(NC3CC3)n2)c1` (stereo not drawn) [Example 31], in data set [1], the “pI50 Fum” value is listed as 6.3 and the pI50 growth stood at 5.7. Further, the log p in data set [4] (pH 2.3) is 1.86[a].

With `CCC(C)Nc1nc(Nc2cccc(N3CCCC3=O)c2)ncc1Cl` (stereo not drawn) [Example 8], in data set [1], the “pI50 Fum” value was 4.6 and the pI50 growth is given as 4. Also, the log p in data set [4] (pH 2.3) was 1.84[a];. Besides, the log p in data set [3] is 2.92[c].

In the case of `COC(=O)C1CC(=O)N(c2cccc(Nc3ncc(Cl)c(NC4CC4)n3)c2)C1` (stereo not drawn) [Example 137], in data set [1], the “pI50 Fum” value was determined as 5.7 and the pI50 growth came out at 5.1. For the same molecule, in data set [2] (pH 2.7), the log p was 1.52[b].

For `CC1(C)CC(=O)N(c2cccc(Nc3ncc(Cl)c(NC4CC4)n3)c2)C1=O` [Example 25], in data set [1], the “pI50 Fum” value is 6.3 and the pI50 growth came out at 5.6. Besides, the log p in data set [4] (pH 2.3) is 1.83[a].

In the case of `CC1CCC(=O)N1c1cccc(Nc2ncc(Br)c(NC3CC3)n2)c1` (stereo not drawn) [Example 60], in data set [1], the “pI50 Fum” value worked out at 6.3 and the pI50 growth was found to be 5.5. The log p in data set [4] (pH 2.3) was 1.72[a];. In addition, the log p in data set [2] (pH 2.7) is 1.72[b].

Regarding `CC1(C)CC(=O)N(c2cccc(Nc3ncc(Br)c(NC4CC4)n3)c2)C1=O` [Example 28], the “pI50 Fum” value in data set [1] worked out at 6.2. Also, the log p in data set [2] (pH 2.7) is 1.99[b].

For the molecule `CCC1=C(C)CN(c2cccc(Nc3ncc(Cl)c(NC4CC4)n3)c2)C1=O` [Example 224], in data set [1], the “pI50 Fum” value amounted to 6 and the pI50 growth was found to be 5.3. In addition, the log p in data set [4] (pH 2.3) was 2.2[a].

As to `CC(C)Nc1nc(Nc2cccc(N3C(=O)CC(C)(C)C3=O)c2)ncc1Cl` [Example 140], in data set [1], the “pI50 Fum” value amounted to 5.7 and the pI50 growth stood at 5.2. For the same molecule, the log p in data set [2] (pH 2.7) was 1.81[b].

Consider `CC1CC(C)N(c2cccc(Nc3ncc(Br)c(NC4CC4)n3)c2)C1=O` (stereo not drawn) [Example 84], for which, in data set [1], the “pI50 Fum” value was 6.3. Besides, the results for the log p in data set [2] (pH 2.7) and in data set [3] were 2.01[b] and 2.91[c];, respectively.

Take `CC1CCN(c2cccc(Nc3ncc(Br)c(NC4CCC4)n3)c2)C1=O` (stereo not drawn) [Example 27]: in data set [1], the “pI50 Fum” value was 6.2 and the pI50 growth came to 5.6. Moreover, the log p in data set [4] (pH 2.3) was 2.24[a];. Also, the log p in data set [2] (pH 2.7) was 2.09[b].

On to `CC(C)[C@H]1COC(=O)N1c1cccc(Nc2ncc(Cl)c(NC3CC3)n2)c1` [Example 76], for which, in data set [1], the “pI50 Fum” value came out at 6.2 and the pI50 growth worked out at 5.6. Besides, in data set [2] (pH 2.7), the log p was 2.47[b].

Regarding `CC(C)Nc1nc(Nc2cccc(N3C(=O)C(C)CC3C)c2)ncc1Cl` (stereo not drawn) [Example 141], the “pI50 Fum” value in data set [1] is listed as 5.3. In addition, in data set [1], the pI50 growth is 5. The figures for the log p in data set [2] (pH 2.7) and in data set [3] were 1.88[b] and 3.15[c];, respectively.

For the molecule `CC1CC(C)N(c2cccc(Nc3ncc(Cl)c(N(C)C4CC4)n3)c2)C1=O` (stereo not drawn) [Example 178], in data set [1], the “pI50 Fum” value is given as 5.7 and the pI50 growth amounted to 4.9. Also, the log p in data set [2] (pH 2.7) is 2.61[b].

`CC1CC1Nc1nc(Nc2cccc(N3CCCC3=O)c2)ncc1C(F)(F)F` (stereo not drawn) [Example 219]: in data set [1], the “pI50 Fum” value was found to be 6.3 and the pI50 growth is given as 5.5. Besides, the log p in data set [2] (pH 2.7) was 2.79[b].

For `CC1(C)CC(=O)N(c2cccc(Nc3ncc(Br)c(NC4CCC4)n3)c2)C1=O` [Example 63], in data set [1], the “pI50 Fum” value turned out to be 6.6 and the pI50 growth is 5.7. Also, the log p in data set [4] (pH 2.3) was 2.19[a].

For `CC1(C)CC(=O)N(c2cccc(Nc3ncc(C(F)(F)F)c(NC4CC4)n3)c2)C1=O` [Example 62], in data set [1], the “pI50 Fum” value was 6.2 and the pI50 growth amounted to 5.7. Moreover, the log p in data set [4] (pH 2.3) was 2.63[a].

Regarding `CC1CC1Nc1nc(Nc2cccc(N3CCCC3=O)c2)ncc1Cl` (stereo not drawn) [Example 200], in data set [1], the “pI50 Fum” value stood at 4.8 and the pI50 growth came to 4.7. Besides, in data set [2] (pH 2.7), the log p was 1.72[b].

With `CC1(C)CC(=O)N(c2cccc(Nc3ncc(C(F)(F)F)c(NCC4CC4)n3)c2)C1=O` [Example 196], in data set [1], the “pI50 Fum” value is given as 5.3 and the pI50 growth is recorded as 4.8. Moreover, the log p in data set [2] (pH 2.7) is 2.81[b].

Regarding “1-(3-{[4-(Cyclopropylamino)-5-(trifluoromethyl)pyrimidin-2-yl]amino}phenyl)pyrrolidin-2-one [Example 236]”, the pI50 growth in data set [1] turned out to be 4.9. In data set [4] (pH 2.3), the “log P (pH 2.3)” value is on record as 1.49. The log p in data set [2] (method [b], LC-MS, acid range pH 2.7) was 1.49[b].

As for `CC1COC(=O)N1c1cccc(Nc2ncc(Br)c(NC3CCC3)n2)c1` (stereo not drawn) [Example 56], in data set [1], the “pI50 Fum” value was 6.2 and the pI50 growth came out at 5.6. In data set [4] (pH 2.3), the log p is 1.97[a].

With `CC1COC(=O)N1c1cccc(Nc2ncc(Cl)c(NCC(F)(F)F)n2)c1` (stereo not drawn) [Example 169], in data set [1], the “pI50 Fum” value is on record as 5.5 and the pI50 growth is given as 5.1. In addition, the log p in data set [2] (pH 2.7) is 2.16[b].

For `CN(c1nc(Nc2ccc(F)c(N3CCCC3=O)c2)ncc1Cl)C1CC1` [Example 198], in data set [1], the “pI50 Fum” value worked out at 5.5 and the pI50 growth was 4.8. In addition, the log p in data set [2] (pH 2.7) is 2.53[b]. In data set [3], the log p is 2.92[c];.

As for `C[C@H]1COC(=O)N1c1cccc(Nc2ncc(Cl)c(NC3CC3)n2)c1` [Example 92], in data set [1], the “pI50 Fum” value was 6.6 and the pI50 growth worked out at 5.7. Moreover, the log p in data set [2] (pH 2.7) is 1.54[b]. In data set [3], the log p is 2.42[c];.

As to `CC(C)Nc1nc(Nc2cccc(N3C(=O)OCC3C)c2)ncc1Cl` (stereo not drawn) [Example 139], in data set [1], the “pI50 Fum” value was determined as 5 and the pI50 growth worked out at 5. The log p in data set [2] (pH 2.7) is 1.64[b].
